Test results taken from ChEMBL document CHEMBL3046081, “Phytotoxic effect, uptake, and transformation of biochanin A in selected weed species” (J Agric Food Chem, 2012).

Columns and labels:
[1] = test system: Leaf; experiment: Drug recovery in leaf of Secale cereale (rye) at 5 ng/g by LC-MS analysis
[2] = test system: Leaf; experiment: Drug recovery in leaf of Secale cereale (rye) at 50 ng/g by LC-MS analysis

| SMILES | Drug recovery [1] | Drug recovery [2] |
| --- | --- | --- |
| O=C(O)/C=C/c1ccc(O)cc1 [COUMARIC ACID] | 79% | 81% |
| COc1ccc(C2COc3cc(O)cc(O)c3C2=O)cc1 (configuration not stated) [DIHYDROBIOCHANIN A] | 104% | 76% |
| O=c1c(-c2ccc(O)cc2)coc2cc(O)cc(O)c12 [GENISTEIN] | 81% | 65% |
| COc1ccc(-c2coc3cc(O)cc(O)c3c2=O)cc1O [PRATENSEIN] | 98% | – |
